Test results published in patent US10730850B2, “Pyridinylmethyl carbamimidoylcarbamate derivatives and their use as AOC3 inhibitors” (Boehringer Ingelheim International GmbH, priority 2016, dated 2020).
Like-named read-outs stand apart in the source and are kept apart here.

How the values were obtained:
[1] = test system: hepatocytes; assay: Metabolic stability assay in hepatocyte suspension; format: in vitro ADME; details: 1 μM test compound
Procedure: The metabolic degradation of the test compound is assayed in a hepatocyte suspension. Hepatocytes (typically cryopreserved) are incubated in an appropriate buffer system (e.g. Dulbecco's modified eagle medium plus 3.5 μg glucagon/500 mL, 2.5 mg insulin/500 mL and 3.75 mg/500 mL hydrocortison) containing 5% species serum. Following a (typically) 30 min preincubation in an incubator (37° C., 10% CO2) 5 μl of test compound solution (80 μM; from 2 mM in DMSO stock solution diluted 1:25 with medium) are added into 395 μl hepatocyte suspension (cell density in the range 0.25-5 Mio cells/mL, typically 1 Mio cells/mL; final concentration of test compound 1 μM, final DMSO concentration 0.05%). The cells are incubated for six hours (incubator, orbital shaker) and samples (25 μl) are taken at 0, 0.5, 1, 2, 4 and 6 hours. Samples are transferred into acetonitrile and pelleted by centrifugation (5 min). The supernatant is transferred to a new 96-deepwell plate, evaporated under nitrogen and resuspended. Decline of parent compound is analyzed by HPLC-MS/MS
CLint is calculated as follows CL_INTRINSIC=Dose/AUC=(C0/CD)/(AUD+clast/k)×1000/60. C0: initial concentration in the incubation [μM], CD: cell density of vital cells [10e6 cells/mL], AUD: area under the data [μM×h], clast: concentration of last data point [μM], k: slope of the regression line for parent decline [h-1].
The calculated in vitro hepatic intrinsic clearance can be scaled up to the intrinsic in vivo hepatic Clearance and used to predict hepatic in vivo blood clearance (CL) by the use of a liver model (well stirred model). CL_INTRINSIC_INVIVO [ml/min/kg]=(CL_INTRINSIC [μL/min/10e6 cells]×hepatocellularity [10e6 cells/g liver]×liver factor [g/kg bodyweight])/1000 CL [ml/min/kg]=CL_INTRINSIC_INVIVO [ml/min/kg]×hepatic blood flow [ml/min/kg]/(CL_INTRINSIC_INVIVO [ml/min/kg]+hepatic blood flow [ml/min/kg])

[2] = target: AOC3 (Homo sapiens (Human), UniProt Q16853); assay: MAO-Glo AOC3 assay (recombinant CHO cells overexpressing AOC3); format: biochemical
From the text: The MAO-Glo™ Assay (commercial available from PROMEGA, # V1402) provides a sensitive method for the measurement of monoamine oxidase (MAO) activity (Valley, M. P. et al., 2006, Anal. Biochem. 359: 238-246) from a variety of tissues, biofluids or recombinant expressed or purified enzymes. As substrate a derivate of the beetle luciferin ((4S)-4,5-dihydro-2-(6-hydroxybenzothiazolyl)-4-thiazole-carboxylic acid) is used, which is oxidized at a primary amine moiety. After a spontaneous elimination and a catalyzed esterase reaction, the turnover of the luciferine by the luciferase is recorded as a signal of AOC3 activity.
An aliquot of 3 μL of the compound dilution is added to a 384 well plate (Optiplate, PS, flat bottom, white, PERKIN ELMER, #6007290) with a final DMSO concentration of 6.6%. Recombinant CHO cells, overexpressing the human (1500 cells/well), mouse (1000 cells/well) or rat (500 cells/well) AOC3 enzyme are diluted in reaction buffer and added in a volume of 15 μL to the wells. After incubation for 20 minutes at 37° C., 2 μL of MAO substrate (dissolved in DMSO at 16 mM, adjusted to assay concentration in reaction buffer to a final assay concentration of 20 μM) is added and further incubated for 60 minutes at 37° C. The turnover of the substrate is determined by the addition of 20 μL of the detection-mix which was generated by the addition of reconstitution buffer with esterase (PROMEGA, # V1402) to the luciferine detection reagent (PROMEGA, # V1402). After an incubation period of 20 minutes, the luminescent signal is measured with Envision 2104 Multilabel Reader (PERKIN ELMER).
In the following table the activity expressed as IC50 (nM) of compounds according to the invention is presented wherein the IC50 values are determined in the MAO-Glo™ AOC3 assay as described hereinbefore. The term “Example” refers to the example numbers according to the following experimental section.

[3] = Table 3, comparative compounds of EP 2 695 881
[4] = Table 2, comparative compounds of EP 2 695 881, read-out: IC50

Chain of AOC3 (Q16853 whole entry): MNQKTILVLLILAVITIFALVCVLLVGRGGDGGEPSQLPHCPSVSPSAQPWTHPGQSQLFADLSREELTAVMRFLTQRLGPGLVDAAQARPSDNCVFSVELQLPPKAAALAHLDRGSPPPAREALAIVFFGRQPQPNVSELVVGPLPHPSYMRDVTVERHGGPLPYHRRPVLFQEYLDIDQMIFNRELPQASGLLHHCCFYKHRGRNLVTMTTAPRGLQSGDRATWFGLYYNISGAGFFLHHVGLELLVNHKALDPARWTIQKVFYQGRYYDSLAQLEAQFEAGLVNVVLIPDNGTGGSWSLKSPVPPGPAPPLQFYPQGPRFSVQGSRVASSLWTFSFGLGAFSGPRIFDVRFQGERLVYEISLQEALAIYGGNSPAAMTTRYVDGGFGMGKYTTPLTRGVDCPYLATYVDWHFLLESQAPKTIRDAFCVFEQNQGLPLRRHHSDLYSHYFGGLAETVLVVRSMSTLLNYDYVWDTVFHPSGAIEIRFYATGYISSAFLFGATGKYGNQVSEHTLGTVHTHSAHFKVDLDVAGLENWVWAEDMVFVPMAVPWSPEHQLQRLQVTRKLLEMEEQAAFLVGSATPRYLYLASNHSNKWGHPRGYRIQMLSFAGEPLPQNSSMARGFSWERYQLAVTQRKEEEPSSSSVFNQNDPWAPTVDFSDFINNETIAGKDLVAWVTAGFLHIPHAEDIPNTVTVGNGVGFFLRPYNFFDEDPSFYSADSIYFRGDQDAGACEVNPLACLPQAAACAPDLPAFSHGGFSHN

Structure (SMILES)	QH ([1]; Table 4)	IC50 ([2]; Table 1, read-out: AOC3 IC50)	also measured
N#Cc1ccc(N2CCN(c3nccc(COC(=O)NC(=N)N)c3F)CC2)c(F)c1 [Example 1.083]	11%	4 nM	
N=C(N)NC(=O)OCc1ccnc(N2CCN(c3ccc(Cl)cc3)CC2)c1F [Example 1.077]	30%	7 nM	
CC(=O)N1CCC(C2CN(c3nccc(COC(=O)NC(=N)N)c3F)C2)CC1 [Example 1.047]	<4%	8 nM	
CS(=O)(=O)c1ccc(N2CCN(c3nccc(COC(=O)NC(=N)N)c3F)CC2)c(F)c1 [Example 1.106]	8%	6 nM	
N=C(N)NC(=O)OCc1ccnc(N2CCC(c3ccncc3)CC2)c1F [Example 1.010]	16%	3 nM	
Cc1cc(N2CCN(c3nccc(COC(=O)NC(=N)N)c3F)CC2)ccn1 [Example 1.039]	<4%	2 nM	
N=C(N)NC(=O)OCc1ccnc(N2CCN(c3cccc(F)c3)CC2)c1F [Example 1.044]	56%	9 nM	
N#CC1(c2ccccc2)CCN(c2nccc(COC(=O)NC(=N)N)c2F)CC1 [Example 1.050]	10%	2 nM	
N=C(N)NC(=O)OCc1ccnc(N2CCC(c3ccc(F)cc3)CC2)c1F [Example 1.041]	12%	9 nM	
N=C(N)NC(=O)OCc1ccnc(N2CCN(c3ccc(Cl)cn3)CC2)c1F [Example 1.078]	14%	9 nM	
N=C(N)NC(=O)OCc1ccnc(N2CCC(C3CCOCC3)CC2)c1F [Example 1.023]	14%	8 nM	
N#Cc1cccc(C2CCN(c3nccc(COC(=O)NC(=N)N)c3F)CC2)c1 [Example 1.051]	20%	2 nM	
CS(=O)(=O)c1ccc(N2CCN(c3nccc(COC(=O)NC(=N)N)c3F)CC2)nc1 [Example 1.103]	<4%	8 nM	
CN(C)C(=O)c1ccc(N2CCN(c3nccc(COC(=O)NC(=N)N)c3F)CC2)nc1 [Example 1.101]	<4%	7 nM	
COC(=O)c1ccc(N2CCN(c3nccc(COC(=O)NC(=N)N)c3F)CC2)nc1 [Example 1.092]	92%	9 nM	
COC(=O)N1CCC(C2CCN(c3nccc(COC(=O)NC(=N)N)c3F)CC2)CC1 [Example 1.095]	15%	3 nM	
COc1cccc(N2CCN(c3nccc(COC(=O)NC(=N)N)c3F)CC2)c1 [Example 1.068]	23%	7 nM	
CN(C)C(=O)c1ccc(N2CCN(c3nccc(COC(=O)NC(=N)N)c3F)CC2)cc1 [Example 1.100]	9%	5 nM	
COc1ccc(N2CCN(c3nccc(COC(=O)NC(=N)N)c3F)CC2)cc1 [Example 1.067]	23%	5 nM	QH ([1]; Table 3, compounds of the present invention): 10%; IC50 ([2]; Table 2, compounds of the present invention, read-out: IC50): 4.6 nM
N=C(N)NC(=O)OCc1ccnc(N2CCC(N3Cc4ccccc4C3=O)CC2)c1F [Example 1.089]	8%	4 nM	

Structure (SMILES)	QH ([1]; Table 4)	IC50 ([2]; Table 1, read-out: AOC3 IC50)	also measured
COc1ncc(N2CCN(c3cccc(COC(=O)NC(=N)N)c3F)CC2)cn1 [126 (235), reference compound]			QH [1, 3]: 11%; IC50 [2, 4]: 3.9 nM
CC(=O)N1CCC(C2CN(c3cccc(COC(=O)NC(=N)N)n3)C2)CC1 [Example 1.016]	6%	10 nM	
COc1cnc(C2=CCN(c3nccc(COC(=O)NC(=N)N)c3F)CC2)nc1 [Example 1.064]	14%	6 nM	
N#Cc1ccc(N2CCN(c3nccc(COC(=O)NC(=N)N)n3)CC2)cc1 [Example 1.027]	9%	2 nM	
N=C(N)NC(=O)OCc1ccnc(N2CCN(c3ccc(C(F)(F)F)nn3)CC2)c1F [Example 1.099]	9%	5 nM	
N=C(N)NC(=O)OCc1ccnc(N2CCN(c3ccccc3)C(=O)C2)c1F [Example 1.033]	4%	6 nM	
N#Cc1ccc(N2CCN(c3nccc(COC(=O)NC(=N)N)c3F)CC2)nc1 [Example 1.056]	12%	4 nM	
N=C(N)NC(=O)OCc1ccnc(N2CC=C(c3ccc(F)cc3)CC2)c1F [Example 1.037]	20%	9 nM	
Cc1cc(C)cc(N2CCN(c3nccc(COC(=O)NC(=N)N)c3F)CC2)c1 [Example 1.061]	13%	8 nM	
N=C(N)NC(=O)OCc1ccnc(N2CCN(c3cncnc3)CC2)c1F [Example 1.017]	6%	3 nM	
N=C(N)NC(=O)OCc1ccnc(N2CCC(C3CCN(S(N)(=O)=O)CC3)CC2)c1F [Example 1.104]	5%	9 nM	
Cc1cccc(N2CCN(c3nccc(COC(=O)NC(=N)N)c3F)CC2)c1 [Example 1.031]	23%	9 nM	
CNC(=O)c1ccc(N2CCN(c3nccc(COC(=O)NC(=N)N)c3F)CC2)nc1 [Example 1.091]	7%	7 nM	
CC(=O)c1ccc(N2CCN(c3nccc(COC(=O)NC(=N)N)c3F)CC2)nc1 [Example 1.085]	85%	4 nM	
N=C(N)NC(=O)OCc1ccnc(N2CCC(c3ccc(Cl)cc3)CC2)c1F [Example 1.074]	24%	7 nM	
COc1ncc(N2CCN(c3cccc(COC(=O)NC(=N)N)n3)CC2)cn1 [Example 1.036]	16%	7 nM	
N=C(N)NC(=O)OCc1ccnc(N2CCN(c3ccncc3)CC2)c1F [Example 1.011]	<4%	3 nM	
N=C(N)NC(=O)OCc1ccnc(N2CCN(c3ccc(C(N)=O)cn3)CC2)c1F [Example 1.086]	11%	7 nM	
COc1ccc(C2CCN(c3nccc(COC(=O)NC(=N)N)c3F)CC2)cc1 [Example 1.065]	40%	5 nM	
COc1ccc(N2CCN(c3cccc(COC(=O)NC(=N)N)c3F)CC2)cc1 [57 (227), reference compound]			QH [1, 3]: 20%; IC50 [2, 4]: 3.9 nM
